Laboratory results as given in patent publication US20250171430A1, “PYRAZOLYL COMPOUNDS AS KV7 CHANNEL ACTIVATORS” (Biohaven Therapeutics Ltd., priority 2022, published 2025).

Biological target: T1, Kv7.2/7.3 (Homo sapiens, UniProt O43525+O43526)
T1 construct: Kv7.2 tetracycline-induced, Kv7.3 constitutive
Assay: Kv7.2/7.3 Activation Assay (Thallium Flux Assay)
Format: cell-based
Conditions: hKV7.2/7.3 cell line; test compound at single concentration of 10 μM; fluorescence at 90 sec normalized to positive control (retigabine, 30 μM)
Description: The Thallium Flux Assay is used as a surrogate indicator of potassium channel activity.
The experimental protocol was adapted from the FluxOR™ II Green Potassium Ion Channel Assay User Guide (Pub. No. MAN0016084, Invitrogen). Conditions were optimized for the Kv7.2/7.3 cell line.
Cell Line: The hKV7.2/7.3 cell line was obtained from Chantest (cat. #CT6147).
Cell Culture: Kv7.2/7.3 cells were maintained in a media containing DMEM/F12; 50/50 (Fisher 11-330), 10% Fetal Bovine Serum (FBS) (Fisher 26-140), 100 units/mL Penicillin-Streptomycin (Fisher 15-140), 0.005 mg/ml Blasticidin (InvivoGen ant-bl-1), 0.5 mg/mL Geneticin (InvivoGen ant-gn-5), and 0.1 mg/mL Zeocin (Fisher R25001). One day prior to experimentation, cells were plated in 96 well clear bottom plates (Corning cat. #353219) in a media without Blasticidin, Geneticin, or Zeocin. In this cell line Kv7.3 channel expression is controlled by a constitutive promoter. Kv7.2 channel expression was induced by adding tetracycline (Sigma T7660) at a final concentration of 10 ng/mL overnight in a cell culture incubator at 37° C. and 5% CO2. On the day of assay, the cell culture medium in the 96-well plates was replaced by assay buffer containing the thallium-sensitive fluorescent sensor, FluxOR II Green prepared according to manufacturer's instructions. The 96-well plates were then incubated for 1 h at 37° C. Following the incubation, the FluxOR II Green-containing solution was replaced with extracellular solution.
Test Compound Plates: The test compound is diluted in a mixture of 0.1% DMSO/extracellular solution at a single concentration of 10 μM. Dilutions were made on a Biomek NXP (BECKMAN COULTER). Extracellular solution contained (in mM: 145 NaCl, 4 KCl, 2 CaCl2), 1 MgCl2, 10 HEPES, and 10 Glucose, pH 7.4).
Measurement and data analysis: Thallium-flux-mediated changes in intracellular fluorescence were made using a plate reader (Enspire, Perkin Elmer) set with an excitation wavelength of 475 nm and an emission wavelength of 530 nm. After a 15 sec baseline measurement, the stimulus buffer containing thallium and potassium was added to the 96-well plate containing FluxOR II Green-loaded cells and test compounds. Fluorescence values at 90 sec were normalized to the positive control (retigabine, 30 μM) and test compound activities were assigned categories according to the formula: “No Activity <0.15, “+” Moderate Activity 0.15-0.7, and “++” High Activity >0.7.

Kv7.2/7.3 Activity | SMILES
+ (“+” Moderate Activity 0.15-0.7) | Cc1c(C2CCC2)c(NC(=O)Cc2cc(F)cc(F)c2)nn1C [Compound 1, N-(4-cyclobutyl-1,5-dimethyl-1H-pyrazol-3-yl)-2-(3,5-difluorophenyl)acetamide]
+ (“+” Moderate Activity 0.15-0.7) | CCn1nc(NC(=O)CC(C(F)(F)F)C(F)(F)F)c(C2CC2)c1C [Compound 2, N-(4-cyclopropyl-1-ethyl-5-methyl-1H-pyrazol-3-yl)-4,4,4-trifluoro-3-(trifluoromethyl)butanamide]
++ (“++” High Activity ≥ 0.7) | CCn1nc(NC(=O)Cc2cc(F)cc(F)c2)c(C2CC2)c1C [Compound 3, N-(4-cyclopropyl-1-ethyl-5-methyl-1H-pyrazol-3-yl)-2-(3,5-difluorophenyl)acetamide]
− (“−” No Activity < 0.15) | CCn1nc(NC(=O)CC(C)(C)O)c(C2CC2)c1C [Compound 4, N-(4-cyclopropyl-1-ethyl-5-methyl-1H-pyrazol-3-yl)-3-hydroxy-3-methylbutanamide]
− (“−” No Activity < 0.15) | CCn1nc(NC(=O)CC(C)C)c(C2CC2)c1C [Compound 5, N-(4-cyclopropyl-1-ethyl-5-methyl-1H-pyrazol-3-yl)-3-methylbutanamide]
− (“−” No Activity < 0.15) | CCOC(=O)Nc1nn(CC)c(C)c1C1CC1 [Compound 6, ethyl (4-cyclopropyl-1-ethyl-5-methyl-1H-pyrazol-3-yl)carbamate]
+ (“+” Moderate Activity 0.15-0.7) | CCn1nc(NC(=O)CC(C)(C)C)c(C2CC2)c1C [Compound 7, N-(4-cyclopropyl-1-ethyl-5-methyl-1H-pyrazol-3-yl)-3,3-dimethylbutanamide]
+ (“+” Moderate Activity 0.15-0.7) | CCn1nc(NC(=O)Cc2ccccc2C(F)(F)F)c(C2CC2)c1C [Compound 8, N-(4-cyclopropyl-1-ethyl-5-methyl-1H-pyrazol-3-yl)-2-(2-(trifluoromethyl)phenyl)acetamide]
+ (“+” Moderate Activity 0.15-0.7) | CCn1nc(NC(=O)Cc2cc(Cl)ccc2Cl)c(C2CC2)c1C [Compound 9, N-(4-cyclopropyl-1-ethyl-5-methyl-1H-pyrazol-3-yl)-2-(2,5-dichlorophenyl)acetamide]
+ (“+” Moderate Activity 0.15-0.7) | CCn1nc(NC(=O)[C@H]2CC2(C)C)c(C2CC2)c1C [Compound 10, (S)-N-(4-cyclopropyl-1-ethyl-5-methyl-1H-pyrazol-3-yl)-2,2-dimethylcyclopropane-1-carboxamide]
− (“−” No Activity < 0.15) | CCn1nc(NC(=O)c2ccc(F)c(F)c2)c(C2CC2)c1C [Compound 11, N-(4-cyclopropyl-1-ethyl-5-methyl-1H-pyrazol-3-yl)-3,4-difluorobenzamide]
++ (“++” High Activity ≥ 0.7) | Cn1nc(NC(=O)CC2(C(F)(F)F)CC2)c(C2CCC2)c1-c1ccccc1 [Compound 12, N-(4-cyclobutyl-1-methyl-5-phenyl-1H-pyrazol-3-yl)-2-(1-(trifluoromethyl)cyclopropyl)acetamide]
++ (“++” High Activity ≥ 0.7) | Cn1nc(NC(=O)CC(C)(C)C(F)(F)F)c(C2CCC2)c1-c1ccccc1 [Compound 13, N-(4-cyclobutyl-1-methyl-5-phenyl-1H-pyrazol-3-yl)-4,4,4-trifluoro-3,3-dimethylbutanamide]
++ (“++” High Activity ≥ 0.7) | Cn1nc(NC(=O)C[C@@H]2CC(F)(F)C2(F)F)c(C2CCC2)c1-c1ccc(F)cc1 [Compound 14, (R)-N-(4-cyclobutyl-5-(4-fluorophenyl)-1-methyl-1H-pyrazol-3-yl)-2-(2,2,3,3-tetrafluorocyclobutyl)acetamide]
++ (“++” High Activity ≥ 0.7) | Cn1nc(NC(=O)C[C@@H]2CC(F)(F)C2(F)F)c(C2CCC2)c1Cc1ccccc1 [Compound 15, (R)-N-(5-benzyl-4-cyclobutyl-1-methyl-1H-pyrazol-3-yl)-2-(2,2,3,3-tetrafluorocyclobutyl)acetamide]
++ (“++” High Activity ≥ 0.7) | Cn1nc(NC(=O)C[C@H]2CC(F)(F)C2(F)F)c(C2CCC2)c1Cc1ccccc1 [Compound 16, (S)-N-(5-benzyl-4-cyclobutyl-1-methyl-1H-pyrazol-3-yl)-2-(2,2,3,3-tetrafluorocyclobutyl)acetamide]
++ (“++” High Activity ≥ 0.7) | Cn1nc(NC(=O)CC2(C(F)(F)F)CC2)c(C2CCC2)c1Cc1ccccc1 [Compound 17, N-(5-benzyl-4-cyclobutyl-1-methyl-1H-pyrazol-3-yl)-2-(1-(trifluoromethyl)cyclopropyl)acetamide]
++ (“++” High Activity ≥ 0.7) | Cn1nc(NC(=O)C[C@@H]2CC(F)(F)C2(F)F)c(C2CCC2)c1-c1noc2ccccc12 [Compound 18, (R)-N-(5-(benzo[d]isoxazol-3-yl)-4-cyclobutyl-1-methyl-1H-pyrazol-3-yl)-2-(2,2,3,3-tetrafluorocyclobutyl)acetamide]
++ (“++” High Activity ≥ 0.7) | Cn1nc(NC(=O)C[C@H]2CC(F)(F)C2(F)F)c(C2CCC2)c1-c1noc2ccccc12 [Compound 19, (S)-N-(5-(benzo[d]isoxazol-3-yl)-4-cyclobutyl-1-methyl-1H-pyrazol-3-yl)-2-(2,2,3,3-tetrafluorocyclobutyl)acetamide]
++ (“++” High Activity ≥ 0.7) | Cc1c(NC(=O)CC(C)(C)C(F)(F)F)nn(C)c1-c1ccc(F)cc1 [Compound 20, 4,4,4-trifluoro-N-(5-(4-fluorophenyl)-1,4-dimethyl-1H-pyrazol-3-yl)-3,3-dimethylbutanamide]
++ (“++” High Activity ≥ 0.7) | Cn1nc(NC(=O)C[C@H]2CC(F)(F)C2(F)F)c(C2CCC2)c1-c1ccc(F)cc1 [Compound 21, (S)-N-(4-cyclobutyl-5-(4-fluorophenyl)-1-methyl-1H-pyrazol-3-yl)-2-(2,2,3,3-tetrafluorocyclobutyl)acetamide]
++ (“++” High Activity ≥ 0.7) | CC(C)c1c(NC(=O)CC(C)(C)C)nn(C)c1-c1ccc(F)cc1 [Compound 22, N-(5-(4-fluorophenyl)-4-isopropyl-1-methyl-1H-pyrazol-3-yl)-3,3-dimethylbutanamide]
++ (“++” High Activity ≥ 0.7) | CC(C)c1c(NC(=O)CC(C)(C)C)nn(C)c1-c1ccc(OC(F)(F)F)cc1 [Compound 23, N-(4-isopropyl-1-methyl-5-(4-(trifluoromethoxy)phenyl)-1H-pyrazol-3-yl)-3,3-dimethylbutanamide]
++ (“++” High Activity ≥ 0.7) | CC(C)c1c(NC(=O)C[C@@H]2CC(F)(F)C2(F)F)nn(C)c1-c1ccc(OC(F)(F)F)cc1 [Compound 24, (R)-N-(4-isopropyl-1-methyl-5-(4-(trifluoromethoxy)phenyl)-1H-pyrazol-3-yl)-2-(2,2,3,3-tetrafluorocyclobutyl)acetamide]
++ (“++” High Activity ≥ 0.7) | CC(C)c1c(NC(=O)C[C@H]2CC(F)(F)C2(F)F)nn(C)c1-c1ccc(OC(F)(F)F)cc1 [Compound 25, (S)-N-(4-isopropyl-1-methyl-5-(4-(trifluoromethoxy)phenyl)-1H-pyrazol-3-yl)-2-(2,2,3,3-tetrafluorocyclobutyl)acetamide]
++ (“++” High Activity ≥ 0.7) | CC(C)c1c(NC(=O)CC2(C(F)(F)F)CC2)nn(C)c1-c1ccc(OC(F)(F)F)cc1 [Compound 26, N-(4-isopropyl-1-methyl-5-(4-(trifluoromethoxy)phenyl)-1H-pyrazol-3-yl)-2-(1-(trifluoromethyl)cyclopropyl)acetamide]
− (“−” No Activity < 0.15) | Cn1nc(NC(=O)CC(C)(C)C)c(C2CCC2)c1-c1ccc(C(C)(C)O)cc1 [Compound 29, N-(4-cyclobutyl-5-(4-(2-hydroxypropan-2-yl)phenyl)-1-methyl-1H-pyrazol-3-yl)-3,3-dimethylbutanamide]
++ (“++” High Activity ≥ 0.7) | Cn1nc(NC(=O)C[C@@H]2CC(F)(F)C2(F)F)c(C2CCC2)c1-c1ccc(OC(F)(F)F)cc1 [Compound 30, (R)-N-(4-cyclobutyl-1-methyl-5-(4-(trifluoromethoxy)phenyl)-1H-pyrazol-3-yl)-2-(2,2,3,3-tetrafluorocyclobutyl)acetamide]
